We go through one compound from US11099176B2 (priority 2015, dated 2021).

Common to all, as to assay type: binding
For experiment [1], the system named is Marinobacter sp. msLacBP6 variant 187C, L70I, SEQ ID NO: 52, Badan conjugate. The experiment is described as follows: Fluorescence titration of conjugate (affinity tuning). The arrangement: key to appKd (alanine): nb: no binding.
The subject of experiment [2] is Marinobacter sp. msLacBP6 187C mutants (variants of Table 7). Put plainly: Affinity summary of msLacBP6 187C affinity-tuning mutants. The following applies: all mutants. The source says:
In the PCS we mutated F68 (F98 in ttLacBP1) and D220 (D250 in ttLacBP1). […] It could therefore be considered part of a secondary complementary surface layer (SCS). In the interface we mutated L70 (L100 in ttLacBP1), which is located at the periphery of the lactate-binding site, and forms a contact from the N- to the C-terminal domain across the inter-domain interface.
Both PCS and SCS mutations perturbed the spectral shapes of the lactate-mediated responses. […] These affinity-tuned sensors therefore provide a suitable set for clinical chemistry applications.

Experiment [3] relates to Marinobacter sp. msLacBP6 variant 187C, F68L, SEQ ID NO: 49, Badan conjugate. The experiment is described as follows: Fluorescence titration of conjugate (affinity tuning). More on the design: key to appKd (alanine): nb: no binding.
The subject of experiment [4] is Marinobacter sp. msLacBP6 variant 187C, L70I, SEQ ID NO: 52, Acrylodan conjugate. Described as above. More on the design: key to appKd (alanine): nb: no binding.
Experiment [5] has as its system Marinobacter sp. msLacBP6 conjugates (variants of Table 5). The experiment is described as follows: Affinity summary of msLacBP6 single-cysteine conjugates.
The subject of experiment [6] is Marinobacter sp. msLacBP6 variant 187C, D220E, SEQ ID NO: 56, Acrylodan conjugate. Put plainly: Fluorescence titration of conjugate (affinity tuning). More on the design: key to appKd (alanine): nb: no binding.
The test system of experiment [7] is Marinobacter sp. msLacBP6 variant 187C, F68M, SEQ ID NO: 50, Acrylodan conjugate. The experiment is described as above. The arrangement: key to appKd (alanine): nb: no binding.
The subject of experiment [8] is Marinobacter sp. msLacBP6 variant 187C, D220E, SEQ ID NO: 56, Badan conjugate. The experiment is described as above. More on the design: key to appKd (alanine): nb: no binding.
The test system of experiment [9] is Marinobacter sp. msLacBP6 variant 187C, F68L, SEQ ID NO: 49, Acrylodan conjugate. Described as above. More on the design: key to appKd (alanine): nb: no binding.
In experiment [10] the test system is Marinobacter sp. msLacBP6 variant 187C, F68M, SEQ ID NO: 50, Badan conjugate. The experiment is described as above. The arrangement: key to appKd (alanine): nb: no binding.

As for `C[C@H](N)C(=O)O` [L-alanine], the “appKd (alanine)” value in experiment [1], in experiment [3], in [4], in [6], in experiment [7] and in [8] was “n/b” each time. In addition, the “appKd (alanine)” value in experiment [9] and in [10] was “n/b” each time. Further, the “binding to L-alanine” value in [2] is listed as “None of the mutants bound L-alanine”; in experiment [5], “no binding”.
